ChEMBL document CHEMBL2073746, “Inhibitory effect of the reversal agents V-104, GF120918 and Pluronic L61 on MDR1 Pgp-, MRP1- and MRP2-mediated transport” (Br J Cancer, 2000)

How the values were obtained:
Assay type in all cases: functional, cell-based
[1] = biological target: T1, ATP-dependent translocase ABCB1 (Homo sapiens, UniProt P08183); experiment: TP_TRANSPORTER: inhibition of Daunorubicin transepithelial transport (basal to apical)(Daunorubicin: 2 uM, V-104: 15 uM) in MDR1-expressing MDCKII cells; conditions: dog, mdck-ii
[2] = biological target: ATP-binding cassette sub-family C member 2 (Homo sapiens, UniProt Q92887); experiment: TP_TRANSPORTER: inhibition of Vinblastine transepithelial transport (basal to apical)(Vinblastine: 2 uM, Pluronic L61: 0.1%) in MRP2-expressing MDCKII cells; conditions: dog, mdck-ii
[3] = biological target: T1, ATP-dependent translocase ABCB1; experiment: TP_TRANSPORTER: inhibition of Vinblastine transepithelial transport (basal to apical) (Vinblastine: 2 uM, Pluronic L61: 0.04%) in MDR1-expressing LLC-PK1 cells; conditions: pig

T1 sequence (P08183 whole entry): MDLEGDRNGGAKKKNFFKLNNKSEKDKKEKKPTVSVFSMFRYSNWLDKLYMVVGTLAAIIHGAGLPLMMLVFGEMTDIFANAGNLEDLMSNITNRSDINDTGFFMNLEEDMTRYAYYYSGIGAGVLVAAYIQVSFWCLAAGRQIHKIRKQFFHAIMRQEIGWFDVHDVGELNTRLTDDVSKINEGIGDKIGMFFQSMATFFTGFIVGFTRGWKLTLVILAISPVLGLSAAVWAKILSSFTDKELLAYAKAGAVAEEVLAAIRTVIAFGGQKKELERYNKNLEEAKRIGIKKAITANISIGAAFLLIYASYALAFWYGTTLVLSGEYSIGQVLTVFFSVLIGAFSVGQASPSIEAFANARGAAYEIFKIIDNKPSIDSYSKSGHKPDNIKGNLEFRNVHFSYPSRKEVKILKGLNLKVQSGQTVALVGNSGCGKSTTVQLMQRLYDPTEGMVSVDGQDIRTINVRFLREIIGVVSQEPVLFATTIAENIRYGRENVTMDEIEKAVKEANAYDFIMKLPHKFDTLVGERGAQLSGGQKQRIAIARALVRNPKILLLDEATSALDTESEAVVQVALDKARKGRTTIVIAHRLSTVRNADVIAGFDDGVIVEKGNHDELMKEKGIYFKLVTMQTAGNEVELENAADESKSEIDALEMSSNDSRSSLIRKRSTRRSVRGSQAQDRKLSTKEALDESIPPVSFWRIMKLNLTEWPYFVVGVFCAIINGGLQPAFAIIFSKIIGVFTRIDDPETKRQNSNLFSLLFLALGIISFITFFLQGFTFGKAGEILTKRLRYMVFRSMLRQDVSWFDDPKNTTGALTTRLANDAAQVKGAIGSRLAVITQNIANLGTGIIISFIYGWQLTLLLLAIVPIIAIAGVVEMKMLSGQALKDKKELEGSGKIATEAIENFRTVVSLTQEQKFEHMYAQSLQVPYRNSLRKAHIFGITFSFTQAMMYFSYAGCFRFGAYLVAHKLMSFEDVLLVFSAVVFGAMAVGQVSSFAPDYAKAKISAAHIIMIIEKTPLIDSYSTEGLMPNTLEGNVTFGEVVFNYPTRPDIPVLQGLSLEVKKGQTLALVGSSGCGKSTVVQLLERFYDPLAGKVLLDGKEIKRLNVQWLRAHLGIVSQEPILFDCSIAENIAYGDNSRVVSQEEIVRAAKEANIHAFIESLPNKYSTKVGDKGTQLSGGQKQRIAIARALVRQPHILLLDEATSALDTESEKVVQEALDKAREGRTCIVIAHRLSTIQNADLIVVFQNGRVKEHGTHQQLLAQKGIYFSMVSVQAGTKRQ
ATP-binding cassette sub-family C member 2, sequence (Q92887 whole entry): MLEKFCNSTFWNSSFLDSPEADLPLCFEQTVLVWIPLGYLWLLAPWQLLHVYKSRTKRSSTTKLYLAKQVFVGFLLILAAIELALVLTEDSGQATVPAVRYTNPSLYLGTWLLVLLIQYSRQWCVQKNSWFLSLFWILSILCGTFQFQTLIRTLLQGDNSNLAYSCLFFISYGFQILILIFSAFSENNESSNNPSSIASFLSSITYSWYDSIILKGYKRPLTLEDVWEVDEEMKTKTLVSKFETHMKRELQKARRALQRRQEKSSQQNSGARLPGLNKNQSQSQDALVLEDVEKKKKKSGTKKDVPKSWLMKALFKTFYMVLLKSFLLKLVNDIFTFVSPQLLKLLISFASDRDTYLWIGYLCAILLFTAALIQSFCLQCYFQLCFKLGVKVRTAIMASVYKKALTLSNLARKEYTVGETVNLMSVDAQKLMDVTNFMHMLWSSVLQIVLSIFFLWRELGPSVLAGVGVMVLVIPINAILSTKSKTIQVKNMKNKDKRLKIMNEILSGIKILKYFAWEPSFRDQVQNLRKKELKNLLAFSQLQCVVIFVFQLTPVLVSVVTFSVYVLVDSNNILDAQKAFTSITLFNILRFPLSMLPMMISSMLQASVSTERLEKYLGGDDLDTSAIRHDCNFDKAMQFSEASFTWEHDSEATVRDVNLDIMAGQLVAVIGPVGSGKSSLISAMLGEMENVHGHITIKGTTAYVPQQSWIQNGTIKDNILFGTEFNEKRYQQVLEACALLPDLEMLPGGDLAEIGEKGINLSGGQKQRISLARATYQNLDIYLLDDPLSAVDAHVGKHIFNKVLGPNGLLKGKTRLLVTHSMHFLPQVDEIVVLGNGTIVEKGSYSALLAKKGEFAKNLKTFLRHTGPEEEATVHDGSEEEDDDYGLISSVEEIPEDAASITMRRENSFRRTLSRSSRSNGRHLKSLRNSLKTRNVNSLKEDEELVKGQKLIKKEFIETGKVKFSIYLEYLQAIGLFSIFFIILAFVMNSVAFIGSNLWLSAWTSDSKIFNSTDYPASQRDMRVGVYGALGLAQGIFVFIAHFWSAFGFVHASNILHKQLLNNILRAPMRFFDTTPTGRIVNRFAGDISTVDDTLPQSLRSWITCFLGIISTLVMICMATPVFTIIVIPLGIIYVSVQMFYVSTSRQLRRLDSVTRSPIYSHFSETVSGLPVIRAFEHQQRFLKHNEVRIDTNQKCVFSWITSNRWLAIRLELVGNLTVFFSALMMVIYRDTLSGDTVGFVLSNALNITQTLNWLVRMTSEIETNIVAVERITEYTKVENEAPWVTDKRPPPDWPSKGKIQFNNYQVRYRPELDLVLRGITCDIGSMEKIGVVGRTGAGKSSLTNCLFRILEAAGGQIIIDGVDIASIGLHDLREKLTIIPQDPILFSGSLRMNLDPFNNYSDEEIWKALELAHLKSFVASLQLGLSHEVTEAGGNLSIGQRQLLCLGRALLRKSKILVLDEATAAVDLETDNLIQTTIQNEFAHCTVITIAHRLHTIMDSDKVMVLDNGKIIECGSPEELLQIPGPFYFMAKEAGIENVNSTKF

Row | Compound | Activity [1] | Activity [2] | Activity [3]
1 | COc1cc(C(=O)C(=O)N2CCCC[C@H]2C(=O)O)cc(OC)c1OC | inhibitor [+] | – | –
2 | PLURONIC L61 | – | inhibitor [+] | inhibitor [+]
